Assay in all cases: NCI anticancer screen, dose series, 48 h
Assay [1] relates to HOP-62 NSCLC.
The test system of assay [2] is OVCAR-4 ovarian.
Assay [3] has as its system MOLT-4 leukemia.
Assay [4] concerns SK-OV-3 ovarian.
Assay [5] deals with SNB-75 CNS.
In assay [6] the test system is HS 578T breast.
The test system of assay [7] is HT29 colon.
Assay [8] relates to PC-3 prostate.
Assay [9] concerns CAKI-1 renal.
Assay [10] concerns A549 NSCLC.

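Method: 48-hour compound exposure of cells in 96-well plates, five concentrations, linear interpolation of endpoints. The concentration for 50% growth inhibition is given as GI50. Definition used: TGI = concentration required for complete inhibition of growth.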

As for `O=C(Nc1ccc(Br)cc1F)c1cc(Br)ccc1O`, the GI50 in assay [1] is 1.45 µM; in assay [2] it was 0.604 µM; in [3], 1.45 µM; in assay [4], 1.62 µM; in assay [5], 0.768 µM; in assay [6], 0.467 µM. The GI50 was 3.08 µM in assay [7], 2.06 µM in assay [8], 0.456 µM in [9] and 2.11 µM in assay [10]. Moreover, the TGI is 6.36 µM in assay [1]; 25.3 µM in assay [2]; 4.49 µM in assay [3]; 8.12 µM in assay [4]; 5.95 µM in assay [5]; 5.66 µM in assay [6]. Moreover, the TGI in assay [7] is 9.71 µM; in assay [8], 7.69 µM; in assay [9], 4.11 µM; in [10] it was 16.4 µM.
`Cc1ccc(S(=O)(=O)n2cc(-c3nnnn3-c3ccc(Cl)cc3)c(=O)c3ccccc32)cc1`: the GI50 in assay [1] was 73.6 µM; in assay [2], 53.7 µM; in assay [3] it was 21.2 µM; in assay [4] it was more than 100 µM; in assay [5] it was 39.6 µM; in [6], more than 100 µM. For the same compound, the GI50 in [7] is 57.7 µM; in assay [8], 57.3 µM; in [9], more than 100 µM; in assay [10], 76.3 µM. The TGI is more than 100 µM in assay [1]; more than 100 µM in [2]; 57 µM in assay [3]; more than 100 µM in assay [4]; more than 100 µM in assay [5]; more than 100 µM in assay [6]. For the same compound, the TGI in assay [7], in assay [8], in assay [9] and in assay [10] was more than 100 µM throughout.
Regarding `COc1cc2c3c(c4c5ccccc5[nH]c4c2c(OC)c1OC)C(=O)N(CCN1CCCCC1)C3=O`, the GI50 is 0.721 µM in [1]; 1.26 µM in assay [2]; 0.536 µM in assay [3]; 1.18 µM in assay [4]; 2.47 µM in [5]; 1.84 µM in assay [6]. For the same compound, the GI50 in assay [7] is 0.417 µM; in assay [8], 1.22 µM; in [9], 0.811 µM; in assay [10], 0.611 µM. Besides, the TGI in [1] worked out at 2.79 µM; in assay [2], 3.14 µM; in assay [3] it was 9.23 µM; in assay [4], 2.53 µM; in [5], 7.19 µM; in assay [6], 4.59 µM. Moreover, the TGI in assay [7] amounted to 1.88 µM; in assay [8], 2.64 µM; in [9] it was 2.3 µM; in assay [10] it was 2.3 µM.
For `CSc1nc2c(c(=O)[nH]1)C(c1ccc(Cl)cc1)C1=C(N2)/C(=C/c2ccc(Cl)cc2)CNC1` (stereo not given), the GI50 is 2.38 µM in [1]; 4.76 µM in [2]; 2.45 µM in assay [3]; 2.66 µM in assay [4]; 2.69 µM in [5]; 3.6 µM in assay [6]. The GI50 in assay [7] was 2.05 µM; in [8], 1.99 µM; in assay [9] it was 2.11 µM; in assay [10], 2.21 µM. Besides, the TGI turned out to be 5.11 µM in [1]; 19.2 µM in assay [2]; 11 µM in [3]; 6.33 µM in assay [4]; 11.5 µM in assay [5]; 84.1 µM in assay [6]. Besides, the TGI in [7] was determined as 5.09 µM; in assay [8] it was 5.1 µM; in assay [9], 5.09 µM; in assay [10], 5.91 µM.
Consider `C=C1C(=O)OC2/C=C(\C)C3OC3/C=C(/C(=O)OC)C(OC(C)=O)C(OC(=O)C(C)(O)C(C)OC(C)=O)C12` (stereo not given), for which the TGI turned out to be 37.5 µM in assay [1]; 12.6 µM in [2]; 3.68 µM in [3]; 33 µM in assay [4]; 10.6 µM in assay [5]; 29.7 µM in assay [6]. For the same compound, the TGI in [7] turned out to be 2.88 µM; in assay [8], 14.8 µM; in [9] it was 16.3 µM; in [10] it was 35.5 µM.
Consider `COC(=O)C1C2CCCN2OC1(C)CO` (stereo not given), for which the TGI in assay [1], in [2], in [3], in [4], in assay [5] and in assay [6] was more than 100 µM in each case. Also, the TGI in [7], in assay [8], in [9] and in [10] was more than 100 µM each time.
As to `COc1cc(C2C(C#N)=C(N)Oc3cc(O)ccc32)cc(OC)c1OC` (stereo not given), the GI50 in assay [1] was 0.746 µM; in assay [2], 2.14 µM; in [3], 0.584 µM; in assay [4], 0.481 µM; in [5] it was 0.271 µM; in [6] it was 0.4 µM. The GI50 in assay [7] is 0.39 µM; in assay [8], 0.619 µM; in [9], 0.97 µM; in [10], 0.625 µM. For the same compound, the TGI in assay [1] was more than 100 µM; in assay [2], more than 100 µM; in assay [3], more than 100 µM; in assay [4], more than 43.9 µM; in [5] it was more than 100 µM; in assay [6], more than 100 µM. In addition, the TGI in assay [7] is 11.8 µM; in assay [8], more than 100 µM; in assay [9] it was more than 100 µM; in assay [10], more than 100 µM.

These data come from PubChem BioAssay (NCI).
